Read-outs that look alike come from different tables or passages of the source.
Test system: primary neuronal cultures from embryonic rat brains
Experiment: Rat oscillation assay (FLIPR, neuronal calcium oscillations)
Assay type: cell-based
Settings: Rattus norvegicus
In short: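 Cortical neurons from E18 Wistar rat embryos, cultured 8–10 days at high density, loaded with 1 μM Fluo-8 AM; calcium oscillations recorded by FLIPR once per second in Mg-free HBSS with 2 mM CaCl2, 20 mM HEPES, pH 7.4. Two acquisitions ("Acute", 500 sec, compound added at 250 sec; "20 min"), ± Kv7 blocker XE-991.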

[1] = 20 min, AUC of fluorescence measured 20 min after compound addition, read-out: FLIPR: IC50 [nM] 20 min
[2] = Acute phase, ratio of AUC fluorescence before and after compound addition, read-out: FLIPR: IC50 [nM] acute

COCC(NC(=O)NC1CC2(CCC2)C1)c1cc(OCC(F)(F)F)ncn1 (racemic) [Example 78, (±)-1-{2-Methoxy-1-[6-(2,2,2-trifluoro-ethoxy)-pyrimidin-4-yl]-ethyl}-3-spiro[3.3]hept-2-yl-urea] showed an IC50 [1] of 7.2 nM and an IC50 [2] of 9.4 nM.
Molecule CC(NC(=O)NC1CC2(CC2)C1)c1cccc(S(F)(F)(F)(F)F)c1 (racemic) [Example 127, (±)-1-(1-(3-(pentafluoro-λ^6-sulfaneyl)phenyl)ethyl)-3-(spiro[2.3]hexan-5-yl)urea] has an IC50 [1] of 22 nM and an IC50 [2] of 19 nM.
Molecule O=C(NC1CC2(CCC2)C1)NC(CO)c1cccc(C(F)(F)F)c1 (racemic) [Example 76, (±)-1-[2-Hydroxy-1-(3-trifluoromethyl-phenyl)-ethyl]-3-spiro[3.3]hept-2-yl-urea] has an IC50 [1] of 17 nM and an IC50 [2] of 19 nM.
Molecule CC(Oc1nccc(CNC(=O)NC2CC3(CCC3)C2)n1)C(F)(F)F (racemic) [Example 118, (±)-1-Spiro[3.3]hept-2-yl-3-[2-(2,2,2-trifluoro-1-methyl-ethoxy)-pyrimidin-4-ylmethyl]-urea] has an IC50 [1] of 81 nM and an IC50 [2] of 116 nM.
With COC[C@H](NC(=O)NC1CC2(CC2)C1)c1ccnc(OCC(F)(F)F)c1 (single isomer, unassigned) [Example 188] the IC50 [1] was 5.6 nM and the IC50 [2] was 5.3 nM.
With C[C@@H](NC(=O)NC1CC2(CCC2)C1)c1cc(OCC(F)(F)F)ncn1 (single isomer, unassigned) [Example 183] the IC50 [1] was 1990 nM and the IC50 [2] was 1420 nM.
In the case of C[C@H](NC(=O)NC1CC2(CCC2)C1)c1cccc(OCC(F)(F)F)c1 (single isomer, unassigned) [Example 176], the IC50 [1] is reported as 4.3 nM and the IC50 [2] is reported as 2.9 nM.
Work on CC(NC(=O)NC1CC2(CCC2)C1)c1cc(OCC(F)(F)F)ccc1F (racemic) [Example 99, (±)-1-{1-[2-Fluoro-5-(2,2,2-trifluoro-ethoxy)-phenyl]-ethyl}-3-spiro[3.3]hept-2-yl-urea] yielded an IC50 [1] of 20 nM and an IC50 [2] of 32 nM.
Work on Cc1ccc(CNC(=O)NC2CC3(CCC3)C2)cc1OCC(F)(F)F [Example 109, 1-[4-Methyl-3-(2,2,2-trifluoro-ethoxy)-benzyl]-3-spiro[3.3]hept-2-yl-urea] yielded an IC50 [1] of 262 nM and an IC50 [2] of 200 nM.
In the case of O=C(NCc1cc(F)cc(C(F)(F)F)c1)NC1CC2(CC2)C1 [Example 142, 1-(3-Fluoro-5-trifluoromethyl-benzyl)-3-spiro[2.3]hex-5-yl-urea], the IC50 [1] is reported as 277 nM and the IC50 [2] is reported as 204 nM.
In the case of COc1c(OCC(F)(F)F)cccc1C(C)NC(=O)NC1CC2(CCC2)C1 (racemic) [Example 31, (±)-1-{1-[2-Methoxy-3-(2,2,2-trifluoro-ethoxy)-phenyl]-ethyl}-3-spiro[3.3]hept-2-yl-urea], the IC50 [1] is reported as 25 nM and the IC50 [2] is reported as 20 nM.
CN(C)CC(Oc1cc(CNC(=O)NC2CC3(CCC3)C2)ccn1)C(F)(F)F (racemic) [Example 106, (±)-1-[2-(1-Dimethylaminomethyl-2,2,2-trifluoro-ethoxy)-pyridin-4-ylmethyl]-3-spiro[3.3]hept-2-yl-urea] was tested, and the IC50 [1] was 757 nM and the IC50 [2] was 535 nM.
With CC(NC(=O)NC1CC2(CCC2)C1)c1ccc(Cl)c(OCC(F)(F)F)c1 (racemic) [Example 27, (±)-1-{1-[4-Chloro-3-(2,2,2-trifluoro-ethoxy)-phenyl]-ethyl}-3-spiro[3.3]hept-2-yl-urea] the IC50 [1] was 169 nM and the IC50 [2] was 278 nM.
CN(C)CC(Oc1cccc(CNC(=O)NC2CC3(CCC3)C2)n1)C(F)(F)F (racemic) [Example 105, (±)-1-[6-(1-Dimethylaminomethyl-2,2,2-trifluoro-ethoxy)-pyridin-2-ylmethyl]-3-spiro[3.3]hept-2-yl-urea] was tested, and the IC50 [1] was 261 nM and the IC50 [2] was 278 nM.
O=C(NCc1ccc(F)c(C(F)(F)F)c1)NC1CC2(CCC2)C1 [Example 17, 1-(4-Fluoro-3-trifluoromethyl-benzyl)-3-spiro[3.3]hept-2-yl-urea] showed an IC50 [1] of 145 nM and an IC50 [2] of 141 nM.
